Laboratory results: US20230098254A1, “SCUTELLARIAE RADIX COMPOUNDS AND USE THEREOF FOR INHIBITING OXIDATIVE PHOSPHORYLATION PATHWAY OF MITOCHONDRIA” (priority 2020, published 2023)
Read-outs that look alike come from different tables or passages of the source.

Legend:
[1] = system: oxidative phosphorylation pathway of mitochondria; assay: Cellular oxygen consumption (OCR), XFe metabolic analysis system; format: cell-based; settings: NCI-H82 cell; 118.2 μM; within half an hour; FIG. 1
Protocol: The oxygen required by cell was mainly consumed in the mitochondria respiratory chain, so the measurement of cellular oxygen consumption (OCR, oxygen consumption rate) could directly reflect the activity of the oxidative phosphorylation pathway of mitochondria. In this experiment, the XFe metabolic analysis system was used to measure the oxygen consumption of NCI-H82 cell in the presence or absence of Compound SJ2858 (baicalein) and Compound SJ2775 (baicalin).
Rotenone (abbreviated as RO, 0.5 μM) is a known inhibitor of mitochondria oxidative phosphorylation pathway complex I, Antimycin A (abbreviated as AA, 0.5 μM) is a known inhibitor of mitochondria oxidative phosphorylation pathway complex III. Compound SJ2858, 73.2 μM; Compound SJ2775, 118.2 μM.

[2] = system: NCI-H82 cell; assay: Cell viability, Promega CellTiter-Glo, NCI-H82 cell; format: cell-based; settings: NCI-H82 cell without CSA (inactive mPTP); read-out: IC50 of cell viability inhibition
Protocol: (§1) Cell viability was detected by using the Promega CellTiter-Glo kit, the kit reflected cell viability by directly measuring intracellular ATP content. […] Daoy cell and NCI-H82 cell were cultured in DMEM containing 10% FBS (plus p/s).

[3] = system: Daoy cell; assay: Cell viability, Promega CellTiter-Glo, Daoy cell; format: cell-based, human; settings: read-out: IC50 of cell viability inhibition
Protocol: as §1

[4] = system: Daoy cell; assay: Mitochondria membrane potential difference by TMRM, Daoy cell; format: cell-based, human
Source text: (§2) For cells with active mitochondria permeability transition pore, adding peroxide (such as H2O2) could increase the activity of mitochondria permeability transition pore, resulting in a decrease in mitochondria membrane potential.
(§3) The mitochondria membrane potential difference was detected by Tetramethylrhodamine (TMRM), the high fluorescence intensity of TMRM represented the high membrane potential difference.

[5] = system: NCI-H82 cell; assay: Mitochondria membrane potential difference by TMRM, NCI-H82 cell; format: cell-based
Source text: as §2, §3

Compound	Inhibition of oxygen consumption (in words) [1]	IC50 [2] [µM]	IC50 ([3]; Daoy cell with CSA (1.5 μM mPTP inhibitor)) [µM]	IC50 ([3]; Daoy cell without CSA (active mPTP)) [µM]	Effect on membrane potential (in words) [4]	Relative TMRM signal intensity (%), mean value ([4]; H2O2 +, CsA −) [%]	Effect on membrane potential (in words) [5]	Relative TMRM signal intensity (%), mean value ([5]; H2O2 +, CsA −) [%]
O=C(O)[C@H]1O[C@@H](Oc2cc3oc(-c4ccccc4)cc(=O)c3c(O)c2O)[C@H](O)[C@@H](O)[C@@H]1O [Compound SJ2775, baicalin]	significantly inhibit	38.6	45.4	> 100	–	–	–	–
OO [Compound H2O2, H2O2]	–	–	–	–	down-regulated	82	not affected	119
